Measurements: US20050245399A1, “Pyrazole derivatives as herbicidal compositions containing them” (ISHIHARA SANGYO KAISHA, LTD., priority 2004, published 2005)

How the values were obtained:
[1] = system: barnyardgrass (Echinochloa crus-galli L.): ECHCG; assay: Test Example 1 pre-emergence herbicidal activity, ECHCG; format: in vivo; conditions: Rate 63 g a.i./ha, visually observed 20th to 23rd day after application
Procedure, shortened: (§1)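 Herbicidal effect in pre-emergence treatment: formulated compound sprayed at 500 L/ha water one day after sowing in upland field soil pots, with visual 0–100% growth-control scores recorded 20–23 days after application.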

[2] = system: crabgrass (Digitaria sanguinalis L.): DIGSA; assay: Test Example 1 pre-emergence herbicidal activity, DIGSA; format: in vivo; conditions: Rate 63 g a.i./ha, visually observed 20th to 23rd day after application
Procedure, shortened: as §1

[3] = system: green foxtail (Setaria viridis L.): SETVI; assay: Test Example 1 pre-emergence herbicidal activity, SETVI; format: in vivo; conditions: Rate 63 g a.i./ha, visually observed 20th to 23rd day after application
Procedure, shortened: as §1

[4] = system: redroot pigweed (Amaranthus retroflexus L.): AMARE; assay: Test Example 1 pre-emergence herbicidal activity, AMARE; format: in vivo; conditions: Rate 63 g a.i./ha, visually observed 20th to 23rd day after application
Procedure, shortened: as §1

[5] = system: prickly sida (Sida spinosa L.): SEDSP; assay: Test Example 1 pre-emergence herbicidal activity, SIDSP; format: in vivo; conditions: Rate 63 g a.i./ha, visually observed 20th to 23rd day after application
Procedure, shortened: as §1

[6] = system: velvetleaf (Abutilon theophrasti): ABUTH; assay: Test Example 1 pre-emergence herbicidal activity, ABUTH; format: in vivo; conditions: Rate 63 g a.i./ha, visually observed 20th to 23rd day after application
Procedure, shortened: as §1

[7] = system: rice (Oryza sativa L.): ORYSA; assay: Test Example 1 pre-emergence herbicidal activity, ORYSA; format: in vivo; conditions: Rate 63 g a.i./ha, visually observed 20th to 23rd day after application
Procedure, shortened: as §1

[8] = system: wheat (Triticum aestivum L.): TRZAX; assay: Test Example 1 pre-emergence herbicidal activity, TRZAX; format: in vivo; conditions: Rate 63 g a.i./ha, visually observed 20th to 23rd day after application
Procedure, shortened: as §1

[9] = system: corn (Zea mays L.): ZEAMX; assay: Test Example 1 pre-emergence herbicidal activity, ZEAMX; format: in vivo; conditions: Rate 63 g a.i./ha, visually observed 20th to 23rd day after application
Procedure, shortened: as §1

[10] = system: soybean (Glycine max Merr.): GLXMA; assay: Test Example 1 pre-emergence herbicidal activity, GLXMA; format: in vivo; conditions: Rate 63 g a.i./ha, visually observed 20th to 23rd day after application
Procedure, shortened: as §1

[11] = system: barnyardgrass (Echinochloa crus-galli L.), ECHCG; assay: Test Example 2 post-emergence (foliage treatment) herbicidal activity, ECHCG; format: in vivo; conditions: 63 g a.i./ha
Procedure, shortened: (§2)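 A small sprayer delivered the diluted WP or EC formulation (500 L/ha water, 0.1% v/v spreader) over emerged seedlings in upland soil pots. Damage relative to untreated plants was graded visually from 0 to 100% three weeks or so later (days 20-23).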

[12] = system: crabgrass (Digitaria sanguinalis L.), DIGSA; assay: Test Example 2 post-emergence (foliage treatment) herbicidal activity, DIGSA; format: in vivo; conditions: 63 g a.i./ha
Procedure, shortened: as §2

[13] = system: green foxtail (Setaria viridis L.), SETVI; assay: Test Example 2 post-emergence (foliage treatment) herbicidal activity, SETVI; format: in vivo; conditions: 63 g a.i./ha
Procedure, shortened: (§3)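 Each species was evaluated for growth suppression by eye, 0% matching untreated and 100% meaning death, some 20 to 23 days after a single post-emergence foliar treatment applied in 500 L/ha of water carrying 0.1% (v/v) agricultural spreader.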

[14] = system: redroot pigweed (Amaranthus retroflexus L.), AMARE; assay: Test Example 2 post-emergence (foliage treatment) herbicidal activity, AMARE; format: in vivo; conditions: 63 g a.i./ha
Procedure, shortened: as §2

[15] = system: prickly sida (Sida spinosa L.), SIDSP; assay: Test Example 2 post-emergence (foliage treatment) herbicidal activity, SIDSP; format: in vivo; conditions: 63 g a.i./ha
Procedure, shortened: as §3

[16] = system: velvetleaf (Abutilon theophrasti), ABUTH; assay: Test Example 2 post-emergence (foliage treatment) herbicidal activity, ABUTH; format: in vivo; conditions: 63 g a.i./ha
Procedure, shortened: as §3

[17] = system: rice (Oryza sativa L.), ORYSA; assay: Test Example 2 post-emergence (foliage treatment) herbicidal activity, ORYSA; format: in vivo; conditions: 63 g a.i./ha
Procedure, shortened: as §2

[18] = system: wheat (Triticum aestivum L.), TRZAX; assay: Test Example 2 post-emergence (foliage treatment) herbicidal activity, TRZAX; format: in vivo; conditions: 63 g a.i./ha
Procedure, shortened: as §3

[19] = system: corn (Zea mays L.), ZEAMX; assay: Test Example 2 post-emergence (foliage treatment) herbicidal activity, ZEAMX; format: in vivo; conditions: 63 g a.i./ha
Procedure, shortened: as §3

[20] = system: soybean (Glycine max Merr.), GLXMA; assay: Test Example 2 post-emergence (foliage treatment) herbicidal activity, GLXMA; format: in vivo; conditions: 63 g a.i./ha
Procedure, shortened: as §3

[21] = system: barnyardgrass (Echinochiloa oryzicola: ECHOR); assay: Test Example 3 water application herbicidal activity (paddy), ECHOR; format: in vivo; conditions: 63 g a.i./ha, water application under submerged condition at 0.5 leaf stage, visually observed 14th day after application; 0 = untreated control, 100 = complete kill
Procedure, shortened: (§4)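 Compound, as diluted wettable powder or emulsifiable concentrate, was pipetted into flood water at a set active-ingredient dose. Weeds were treated at 0.5-leaf stage after sowing or tuber planting; 2-leaf rice 4 days post-transplant. Control scored visually, 0 untreated to 100 complete kill, weeds day 14, rice day 21.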

[22] = system: japanese bulrush (Scirpus juncoides: SCPJO); assay: Test Example 3 water application herbicidal activity (paddy), SCPJO; format: in vivo; conditions: 63 g a.i./ha, water application under submerged condition at 0.5 leaf stage, visually observed 14th day after application; 0 = untreated control, 100 = complete kill
Procedure, shortened: as §4

[23] = system: japanese ribbon wapato (Sagittaria pygmaea: SA GPY); assay: Test Example 3 water application herbicidal activity (paddy), SAGPY; format: in vivo; conditions: 63 g a.i./ha, water application under submerged condition, tubers planted, visually observed 14th day after application; 0 = untreated control, 100 = complete kill
Procedure, shortened: as §4

[24] = system: rice (Oryza sativa L.: ORYSA); assay: Test Example 3 water application herbicidal activity (paddy), transplanted rice ORYSA; format: in vivo; conditions: 63 g a.i./ha, water application 4th day after transplantation of 2 leaf stage rice, visually observed 21st day after application; 0 = untreated control, 100 = complete kill
Procedure, shortened: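 Rice at 2-leaf stage is transplanted into flooded puddled soil and treated by water application 4 days later, at a predetermined active-ingredient dose. Crop injury is rated visually as growth control (0–100%) 21 days after treatment.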

## COc1c(Cl)cc(F)c(-c2nn(C)c(OC(F)F)c2Cl)c1NC=O [Compound 1-4, [3-chloro-6-[4-chloro-5-(difluoromethoxy)-1-methyl-1H-pyrazol-3-yl]-5-fluoro-2-methoxyphenyl]-formamide]
[1]
  Pre-emergence Herbicidal Activity ECHCG (growth controlling degree): 95%
[2]
  Pre-emergence Herbicidal Activity DIGSP (growth controlling degree): 100%
[3]
  Pre-emergence Herbicidal Activity SETVI (growth controlling degree): 100%
[4]
  Pre-emergence Herbicidal Activity AMARE (growth controlling degree): 100%
[5]
  Pre-emergence Herbicidal Activity SIDSP (growth controlling degree): 100%
[6]
  Pre-emergence Herbicidal Activity ABUTH (growth controlling degree): 100%
[7]
  Pre-emergence Herbicidal Activity ORYSA (growth controlling degree): 80%
[8]
  Pre-emergence Herbicidal Activity TRZAX (growth controlling degree): 40%
[9]
  Pre-emergence Herbicidal Activity ZEAMX (growth controlling degree): 40%
[10]
  Pre-emergence Herbicidal Activity GLXMA (growth controlling degree): 40%
[11]
  growth controlling degree, ECHCO: 100%
[12]
  growth controlling degree, DIGSP: 100%
[13]
  growth controlling degree, SETVI: 100%
[14]
  growth controlling degree, AMARE: 100%
[15]
  growth controlling degree, SIDSP: 100%
[16]
  growth controlling degree, ABUTH: 100%
[17]
  growth controlling degree, ORYSA: 50%
[18]
  growth controlling degree, TRZAX: 50%
[19]
  growth controlling degree, ZEAMX: 80%
[20]
  growth controlling degree, GLXMA: 80%
[21]
  growth controlling degrees (%) ECHOR: 100%
[22]
  growth controlling degrees (%) SCPJO: 100%
[23]
  growth controlling degrees (%) SAGPY: 98%
[24]
  growth controlling degrees (%) ORYSA: 70%
other
  melting point: 100 to 103 °C

## COc1c(Cl)cc(F)c(-c2nn(C)c(OC(F)F)c2Cl)c1NC(=O)OCc1ccccn1 [Compound 1-69, [3-chloro-6-[4-chloro-5-(difluoromethoxy)-1-methyl-1H-pyrazol-3-yl]-5-fluoro-2-methoxyphenyl]-carbamic acid, 2-pyridinylmethyl ester]
[1]
  Pre-emergence Herbicidal Activity ECHCG (growth controlling degree): 80%
[2]
  Pre-emergence Herbicidal Activity DIGSP (growth controlling degree): 100%
[3]
  Pre-emergence Herbicidal Activity SETVI (growth controlling degree): 100%
[4]
  Pre-emergence Herbicidal Activity AMARE (growth controlling degree): 100%
[5]
  Pre-emergence Herbicidal Activity SIDSP (growth controlling degree): 100%
[6]
  Pre-emergence Herbicidal Activity ABUTH (growth controlling degree): 100%
[7]
  Pre-emergence Herbicidal Activity ORYSA (growth controlling degree): 10%
[8]
  Pre-emergence Herbicidal Activity TRZAX (growth controlling degree): 0%
[9]
  Pre-emergence Herbicidal Activity ZEAMX (growth controlling degree): 10%
[10]
  Pre-emergence Herbicidal Activity GLXMA (growth controlling degree): 10%
[11]
  growth controlling degree, ECHCO: 100%
[12]
  growth controlling degree, DIGSP: 70%
[13]
  growth controlling degree, SETVI: 100%
[14]
  growth controlling degree, AMARE: 100%
[15]
  growth controlling degree, SIDSP: 100%
[16]
  growth controlling degree, ABUTH: 100%
[17]
  growth controlling degree, ORYSA: 95%
[18]
  growth controlling degree, TRZAX: 50%
[19]
  growth controlling degree, ZEAMX: 95%
[20]
  growth controlling degree, GLXMA: 95%
other
  melting point: 35 to 37 °C

## COc1c(Cl)cc(F)c(-c2nn(C)c(OC(F)F)c2Cl)c1NC(=O)C=Cc1c(Cl)cccc1Cl [Compound 1-252]
[1]
  Pre-emergence Herbicidal Activity ECHCG (growth controlling degree): 30%
[2]
  Pre-emergence Herbicidal Activity DIGSP (growth controlling degree): 40%
[3]
  Pre-emergence Herbicidal Activity SETVI (growth controlling degree): 50%
[4]
  Pre-emergence Herbicidal Activity AMARE (growth controlling degree): 100%
[5]
  Pre-emergence Herbicidal Activity SIDSP (growth controlling degree): 20%
[6]
  Pre-emergence Herbicidal Activity ABUTH (growth controlling degree): 50%
[7]
  Pre-emergence Herbicidal Activity ORYSA (growth controlling degree): 10%
[8]
  Pre-emergence Herbicidal Activity TRZAX (growth controlling degree): 10%
[9]
  Pre-emergence Herbicidal Activity ZEAMX (growth controlling degree): 0%
[10]
  Pre-emergence Herbicidal Activity GLXMA (growth controlling degree): 0%
[11]
  growth controlling degree, ECHCO: 100%
[12]
  growth controlling degree, DIGSP: 95%
[13]
  growth controlling degree, SETVI: 100%
[14]
  growth controlling degree, AMARE: 100%
[15]
  growth controlling degree, SIDSP: 100%
[16]
  growth controlling degree, ABUTH: 100%
[17]
  growth controlling degree, ORYSA: 50%
[18]
  growth controlling degree, TRZAX: 50%
[19]
  growth controlling degree, ZEAMX: 50%
[20]
  growth controlling degree, GLXMA: 80%
[21]
  growth controlling degrees (%) ECHOR: 100%
[22]
  growth controlling degrees (%) SCPJO: 30%
[23]
  growth controlling degrees (%) SAGPY: 60%
[24]
  growth controlling degrees (%) ORYSA: 10%
